Measured values from patent US4673675A, “1-(2-pyridyl) 4-cycloalkylmethyl piperazines having cardiotropic activity” (Innothera, priority 1984, dated 1987).

What was measured:
[1] = Toxicity by a single intravenous administration in mice; assay type: in vivo; conditions: mouse, in vivo; single intravenous administration, mice; Litchfield and Wilcoxon; read-out: LD50 (95% confidence limit)
Experimental: (§1) The toxicity of the compounds of the invention was also tested. It concerns more precisely the test of toxicity by a single administration made for all the compounds on male mice, E.O.P.S. of SWISS strain (5 animals per batch).
(§2) The compounds under test were solubilized in a […] aqueous solution of NaCl, at various concentrations and the solutions obtaoned were injected intravenously at the rate of 10 ml.kg^-1 of body weight.
(§3) The administration was made in 20 seconds, the animals being kept under clinical observation for 3 hours after administration, then daily for 7 days.

[2] = system: isolated right auricle of a guinea pig; assay: Chronotropic action (bradycardizing effect) on the isolated right auricle of a guinea pig; conditions: 1·10^-4 g·ml^-1, 30 minutes contact, % reduction of beats/minute; for inhibition at 100 µg/mL: Cavia porcellus, 0.5 h
Experimental: Guinea pigs of either sex were killed with a blow and bled, the right auricle was swiftly removed and immediately immersed in a Krebs-Henseleit solution, thermostatically controlled to 36° C.±0.5° C. and aerated with a mixture of O2 and CO2 (95% and 5%). The preparation was connected to an isometric myograph (F-50 Narco) then to a recording system (Physiograpg M-K III--Narco).
A 60 minute delay was required for ensuring chronotropic action stability.
The compounds (I) of the invention and the pharmaceutically acceptable salts thereof were added to the nutritive medium in a concentration of 1.10^-4 g.ml^-1 and left in contact with the auricle for 30 minutes. The action was evaluated by the percentage reduction of the number of beats/minute (beat/min.) before administration of the compound under test.

[3] = system: male mice, E.O.P.S. of SWISS strain; assay: Toxicity by a single intravenous administration in mice; assay type: in vivo; conditions: single i.v. administration; symptoms observed at the dose where there was no mortality
Experimental: as §1, §2, §3

[4] = target: T1, isolated left auricle of a guinea pig (cardiac inotropic function β1) (Cavia porcellus, UniProt H0W3H1); assay: Positive inotropic effect: contractile force of the isolated left auricle of a guinea pig
T1 construct: the left auricle being swiftly removed and immersed immediately in a Krebs-Henseleit solution; from tissue; host or cells: isolated left auricle of guinea pigs of either sex
Description: The in vitro study was made on the contractile force of the isolated left auricle of a guinea pig. The technique used was that of P. LUMBEY et Coll. […] It allowed the cardiac inotropic function β1 to be studied.
The preparation was connected to an isometric myograph (F-50 Narco), then to a recording system (Physiograph M-K III Narco). For the whole duration of the test the auricle was electrically stimulated by a neurostimulator (Equipement Industriel II) at the frequence of 90 to 120 beats/min.

[5] = system: cardiac hemodynamics in chronically implanted wakeful dogs; assay: Cardiac hemodynamics in chronically implanted wakeful dogs; assay type: in vivo, dog
Experimental: (§4) The positive inotropic effect of compounds (I) of the invention and the pharmaceutically acceptable salts thereof were further tested on the cardiac dynamics of an anaesthetized animal and on a wakeful chronically implanted animal.
b. Test on chronically implanted wakeful dogs
The compounds were tested orally and intravenously on dogs previously implanted with a pressure probe placed in the left ventricle (Janssen) and a Doppler rate sensor placed on the aorta, the tests being carried out at the minium 8 days after implantation.

[6] = system: cardiac hemodynamics of anaesthetized dogs; assay: Cardiac hemodynamics in dogs anaesthetized with Nembutal, closed thorax; assay type: in vivo, dog
Experimental: as §4
(§5) a. Test on a dog anaesthetized with Nembutal
(§6) Two test protocols were carried out, one on a dog with open thorax and the other on a dog with closed thorax. The left intraventricular pressure (PIVG) and aortic pressure (supra sigmoid) (PAO) were measured with high fidelity micro-sensors (Millar 5F), the first derivative of the left ventricular pressure (dP/dt) was recorded as well as the electrocardiogram. The instantaneous alveolar PCO2 was continuously measured. Finally, different blood flow rates were measured, namely the femoral and carotid flow rates in the animals with closed thorax and the aortic and coronary flow rates in those on which a thoracotomy had been performed. These different rates were measured by the electro-magnetic method.
An analysis of the dose/effect relation on three dogs (see results shown in table V below) confirmed the results obtained on dogs with open thorax for compound 1a.

[7] = system: cardiac hemodynamics in anaesthetized dogs; assay: Cardiac hemodynamics in dogs anaesthetized with Nembutal, open thorax; assay type: in vivo, dog
Experimental: as §4, §5, §6

[8] = 0.5 mg·kg^-1 i.v., closed thorax

T1 sequence (H0W3H1 1-470): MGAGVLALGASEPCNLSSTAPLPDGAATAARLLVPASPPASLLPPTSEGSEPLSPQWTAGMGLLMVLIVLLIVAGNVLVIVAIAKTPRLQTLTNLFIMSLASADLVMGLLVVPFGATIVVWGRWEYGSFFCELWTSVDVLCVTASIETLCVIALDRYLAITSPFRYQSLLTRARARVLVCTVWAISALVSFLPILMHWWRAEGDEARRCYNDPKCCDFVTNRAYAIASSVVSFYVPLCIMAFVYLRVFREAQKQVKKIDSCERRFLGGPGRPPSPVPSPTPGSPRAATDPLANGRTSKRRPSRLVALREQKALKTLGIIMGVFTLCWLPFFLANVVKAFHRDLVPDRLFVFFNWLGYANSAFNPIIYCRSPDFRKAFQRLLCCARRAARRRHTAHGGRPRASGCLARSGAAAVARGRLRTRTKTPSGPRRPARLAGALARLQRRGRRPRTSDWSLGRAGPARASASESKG

O=C(CN1CCN(c2ccccn2)CC1)Nc1cccc(C(F)(F)F)c1 [Compound 16]
LD50 at 168 h [1]: 109 mg/kg | inhibition at 100 µg/mL [2]: 18%

c1ccc(N2CCN(CC3CCC3)CC2)nc1 [Compound 2]
LD50 at 168 h [1]: 67 mg/kg | inhibition at 100 µg/mL [2]: 7%

c1ccc(N2CCN(CC3CCCCC3)CC2)nc1 [Compound 3]
Clinical symptomatology [3]: Hypersensitivity, stereotypy | LD50 at 168 h [1]: 81 mg/kg | inhibition at 100 µg/mL [2]: 13%

O=C(CN1CCN(c2ccccn2)CC1)Nc1cc(F)cc(F)c1 [Compound 15]
inhibition at 100 µg/mL [2]: 0%

c1ccc(N2CCN(CCCN3CCCC3)CC2)nc1 [Compound 8]
LD50 at 168 h [1]: 142 mg/kg | inhibition at 100 µg/mL [2]: 20%

c1ccc(N2CCN(CCCN3CCCCCC3)CC2)nc1 [Compound 10]
LD50 at 168 h [1]: 74 mg/kg | inhibition at 100 µg/mL [2]: 0%

CCN(CC)CC(C)N1CCN(c2ccccn2)CC1 (stereo not drawn) [Compound 13]
LD50 at 168 h [1]: 76 mg/kg | Reduction of the chronotropic effect [2]: Arrhythmia

CC1CN(CCCN2CCN(c3ccccn3)CC2)CC(C)O1 (stereo not drawn) [Compound 12]
LD50 at 168 h [1]: 149 mg/kg | inhibition at 100 µg/mL [2]: 0%

COc1cc(CN2CCN(c3ccccn3)CC2)cc(OC)c1OC [Compound 17]
LD50 at 168 h [1]: 130 mg/kg | inhibition at 100 µg/mL [2]: 31%

c1ccc(N2CCN(CC3CC3)CC2)nc1 [Compound 1a, 1-(2-pyridyl) 4-cyclopropylmethyl piperazine]
Emax ([4]; guinea pig, read-out: α (intrinsic activity)): 60 ± 30% | EC50 ([4]; negative log. of the molar concentration producing 50% of maximum action, stimulated at 90 to 120 beats/min, read-out: pD2 (converted)): 20.9 µM | LD50 at 168 h [1]: 47 mg/kg | increase of the dP/dt+ ([5]; 1 mg.kg^-1 intravenously): 136% | PIVG Syst. (left intraventricular pressure) modification ([5]; 5 mg·kg^-1 p.o.): +15% | D.A.O. (aortic flow rate) modification ([5]; 10 mg·kg^-1 p.o.): +27% | F.C. (heartbeat rate, cardiac frequency) modification ([5]; 10 mg·kg^-1 p.o.): +45% | PIVG Syst. (left intraventricular pressure) modification ([5]; 10 mg·kg^-1 p.o.): +26% | dP/dt+ (first derivative of the left ventricular pressure) modification ([5]; 10 mg·kg^-1 p.o.): +55% | increase of dP/dt+/P ([5]; 5 and 10 mg.kg^-1 orally (results approximately similar for both doses)): 32% | P.Ao m (average aortic pressure) modification [6, 8]: +11% | PtdVG (left ventricular telediastolic pressure) modification [6, 8]: -35% | P.Ao m (average aortic pressure) modification ([6]; 2 mg·kg^-1 i.v., closed thorax): +8% | PtdVG (left ventricular telediastolic pressure) modification ([6]; 2 mg·kg^-1 i.v., closed thorax): -31% | dP/dt+ (first derivative of the left ventricular pressure) modification ([6]; 2 mg·kg^-1 i.v., closed thorax): +28% | respiratory analeptic effect ([6]; anaesthetized dogs, i.v.): appreciable and durable respiratory analeptic effect | duration of the positive inotropic effect ([6]; i.v., closed thorax): exceeds three | dose at which the acme of the positive inotropic effect appeared ([6]; i.v., closed thorax, increasing the dose did not increase the effect): 0.5 mg/kg | other parameters measured ([7]; 0.5 mg·kg^-1 i.v.): did not vary significantly | time of the acme of the action after injection ([7]; 0.5 mg·kg^-1 i.v.): 45 min | decrease of left ventricular telediastolic pressure ([7]; 0.5 mg·kg^-1 i.v., significant): 28% | D.A.O. (aortic flow rate) modification ([7]; 1 mg·kg^-1 i.v.): +23% | V.E.S. (systolic ejection volume) modification ([7]; 1 mg·kg^-1 i.v.): +13% | time following injection during which dP/dt increased significantly ([7]; 1 mg·kg^-1 i.v.): 90 min | dP/dt+ (first derivative of the left ventricular pressure) modification ([7]; 1 mg·kg^-1 i.v., significant): +31% | inhibition at 100 µg/mL [2]: 24%

c1ccc(N2CCN(CCCN3CCOCC3)CC2)nc1 [Compound 11]
Reduction of the chronotropic effect [2]: Arrhythmia

Clc1c(CN2CCN(c3ccccn3)CC2)ccc2c1OCO2 [Compound 18]
inhibition at 100 µg/mL [2]: 11%

CCN(CC)CCCN1CCN(c2ccccn2)CC1 [Compound 7]
Clinical symptomatology [3]: Cyanosis, apnoea | LD50 at 168 h [1]: 96 mg/kg | inhibition at 100 µg/mL [2]: 16%

CC(C)N(CCN1CCN(c2ccccn2)CC1)C(C)C [Compound 4]
Clinical symptomatology [3]: Cyanosis, starts | LD50 at 168 h [1]: 95 mg/kg | inhibition at 100 µg/mL [2]: 9%

c1ccc(N2CCN(CCN3CCCCCC3)CC2)nc1 [Compound 6]
LD50 at 168 h [1]: 84 mg/kg | Reduction of the chronotropic effect [2]: Arrhythmia

O=C(CN1CCN(c2ccccn2)CC1)Nc1cccc(F)c1 [Compound 14]
Clinical symptomatology [3]: Apnoea, sedation | LD50 at 168 h [1]: 129 mg/kg | inhibition at 100 µg/mL [2]: 18%
